Reference: ChEMBL document CHEMBL1125635, “Effect of hydroxyl group configuration in hydroxyethylamine dipeptide isosteres on HIV protease inhibition. Evidence for multiple binding modes” (J Med Chem, 1991)

Legend:
[1] = molecular target: T1, Human immunodeficiency virus type 1 protease (Human immunodeficiency virus 1, UniProt Q72874); assay: In vitro concentration required to inhibit 50% activity of HIV protease was measured (exp 2); assay type: functional
[2] = molecular target: T1, Human immunodeficiency virus type 1 protease; assay: In vitro concentration required to inhibit 50% activity of HIV protease was measured; assay type: functional
[3] = molecular target: T1, Human immunodeficiency virus type 1 protease; assay: In vitro binding affinity against HIV protease was measured

| SMILES | IC50 [1] [nM] | IC50 [2] [nM] | Ki [3] [nM] |
| --- | --- | --- | --- |
| CC(C)(C)OC(=O)[C@@H]1CCCN1C[C@@H](O)[C@H](Cc1ccccc1)NC(=O)[C@H](CC(N)=O)NC(=O)OCc1ccccc1 | 300 | 450 | – |
| CC(C)(C)OC(=O)[C@@H]1CCCN1C[C@H](O)[C@H](Cc1ccccc1)NC(=O)[C@H](CC(N)=O)NC(=O)OCc1ccccc1 | 140 | 51 | – |
| CC(=O)N[C@@H](CO)C(=O)N[C@@H](CC(C)C)C(=O)N[C@@H](CC(N)=O)C(=O)N[C@@H](Cc1ccccc1)[C@H](O)CN1CCC[C@H]1C(=O)OC(C)(C)C | – | 14 | – |
| CC[C@H](C)[C@H](NC(=O)[C@@H]1CCCN1C[C@@H](O)[C@H](Cc1ccccc1)NC(=O)[C@H](CC(N)=O)NC(=O)OC(C)(C)C)C(=O)N[C@H](C(=O)OC)C(C)C | – | 850 | – |
| CC[C@H](C)[C@H](NC(=O)[C@@H]1CCCN1C[C@H](O)[C@H](Cc1ccccc1)NC(=O)[C@H](CC(N)=O)NC(=O)OC(C)(C)C)C(=O)N[C@H](C(=O)OC)C(C)C | – | 16 | – |
| CC(=O)N[C@@H](CO)C(=O)N[C@@H](CC(C)C)C(=O)N[C@@H](CC(N)=O)C(=O)N[C@@H](Cc1ccccc1)[C@@H](O)CN1CCC[C@H]1C(=O)OC(C)(C)C | – | 14 | – |
| CC[C@H](C)[C@H](NC(=O)[C@@H]1CCCN1C[C@H](O)[C@H](Cc1ccccc1)NC(=O)[C@H](CC(N)=O)NC(=O)OCc1ccccc1)C(=O)N[C@@H](Cc1ccccc1)C(=O)OC | – | 4 | – |
| CC[C@H](C)[C@H](NC(=O)[C@@H]1CCCN1C[C@H](O)[C@H](Cc1ccccc1)NC(=O)[C@H](CC(N)=O)NC(=O)c1ccc2ccccc2n1)C(=O)N[C@@H](Cc1ccccc1)C(=O)OC | – | 2.3 | – |
| CC[C@H](C)[C@H](NC(=O)[C@@H]1CCCN1CC(O)[C@H](Cc1ccccc1)NC(=O)[C@H](CC(N)=O)NC(=O)[C@H](CC(C)C)NC(=O)[C@H](CO)NC(C)=O)C(=O)N[C@H](C(=O)OC)C(C)C (mixture of isomers) | – | 9 | 0.6 |
| CC[C@H](C)[C@H](NC(=O)[C@@H]1CCCN1C[C@H](O)[C@H](Cc1ccccc1)NC(=O)[C@H](CC(N)=O)NC(=O)[C@H](CC(C)C)NC(=O)[C@H](CO)NC(C)=O)C(=O)N[C@H](C(=O)OC)C(C)C (stereo in doubt; 1R) | – | 65 | 20 |
| CC[C@H](C)[C@H](NC(=O)[C@@H]1CCCN1C[C@H](O)[C@H](Cc1ccccc1)NC(=O)[C@H](CC(N)=O)NC(=O)[C@H](CC(C)C)NC(=O)[C@H](CO)NC(C)=O)C(=O)N[C@H](C(=O)OC)C(C)C (stereo in doubt; 1S) | – | 3.4 | 0.24 |
